{"source": "patent US8846656B2", "about": "“Tetrahydropyrido-pyridine and tetrahydropyrido-pyrimidine compounds and use thereof as C5a receptor modulators” (Novartis AG, priority 2011, dated 2014)", "key": {"CD11b": {"test_system": "CD11b", "experiment": "Human whole blood CD11b up-regulation assay", "format": "cell-based", "details": "2 nM human C5a, CD15+ granulocytes, read-out: hCD11b IC50", "experimental": "Whole blood was collected in sodium heparin tubes and the assay started within 2 hours of the blood draw. The blood was incubated with compounds in 1% DMSO (dimethyl sulfoxide) at room temperature for 10 minutes with gentle rocking. 2 nM of human C5a was then added for 15 minutes at room temperature with gentle rocking. Following the C5a incubation period cells were washed once with cold FACS (fluorescence-activated cell sorting) buffer (phosphate buffered saline+0.5% bovine serum albumin) FITC (fluorescein isothiocyanate) mouse anti-human CD15 and PE-Cy5 (phycoerythrin-cyanine 5) mouse anti-human CD11b antibodies (Becton Dickinson) were gently mixed with the cells and allowed to incubate for 30 minutes on ice protected from the light. Cells were then washed three times with cold FACS buffer. Red blood cells (RBC) were lysed by incubating with BD FACS lysis buffer (Becton Dickinson) for 10 minutes at room temperature. Cells were pelleted and the lysing procedure was repeated until all RBCs were lysed. The remaining leukocytes were resuspended in BD lysis buffer. Samples were acquired on the LSR^11 flow cytometer and 10,000 events of the CD15+ granulocyte population were collected. The CD11b median fluorescence intensity of the CD 15+ cell population was evaluated using FACSDiva software (Becton Dickinson)."}, "human C5aR": {"molecular_target": "human C5aR (Homo sapiens (Human), UniProt P21730)", "sequence (P21730 whole entry)": "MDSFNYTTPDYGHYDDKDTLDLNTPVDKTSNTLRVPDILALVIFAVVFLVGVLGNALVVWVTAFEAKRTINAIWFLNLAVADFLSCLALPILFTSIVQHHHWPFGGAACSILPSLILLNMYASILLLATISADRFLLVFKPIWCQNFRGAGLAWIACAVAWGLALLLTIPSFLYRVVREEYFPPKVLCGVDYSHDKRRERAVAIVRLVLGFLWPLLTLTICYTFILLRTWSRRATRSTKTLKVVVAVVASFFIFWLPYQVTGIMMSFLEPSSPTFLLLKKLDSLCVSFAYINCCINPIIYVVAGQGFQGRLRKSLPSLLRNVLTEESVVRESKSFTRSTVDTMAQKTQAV", "experiment": "FLIPR assay: inhibition of C5a-mediated calcium mobilization", "format": "cell-based", "details": "stable cell line over expressing human C5aR & Gα15, human C5a at EC50 (0.1-0.25 nM)", "experimental": "Compounds were tested for their ability to inhibit C5a-mediated calcium mobilization using a stable cell line over expressing the human C5aR & the Gα15 protein on the FLIPR (Fluorescent Imaging Plate Reader) Tetra system. Cells were maintained in culture media containing DMEM (Dulbecco's Modified Eagle Medium) with 4.5 g/L glucose, 10% fetal bovine serum, 100 U/mL, 1× non-essential amino acid, and 250 μg/mL G418 (Geneticin). Prior to testing of compounds, cells were plated at 10,000 cells/well in clear bottom 384-well black plate, and incubated overnight at 37° C. with 5% CO2. On the day of experiment, culture media was removed, and replaced with assay buffer HBSS (Hanks' Balanced Salt Solution) with 20 mM HEPES (4-(2-hydroxyethyl)-1-piperazineethanesulfonic acid) and 0.1% BSA (bovine serum albumin) BSA containing calcium 5 dye (Molecular Devices) and 2.5 mM probenecid. After 1 hour incubation at 37° C., 5% CO2 for 60 min, cells were pre-incubated with compounds for 30 minutes at room temperature, in 1% DMSO (dimethyl sulfoxide)."}}, "note": "Where two headings read alike, the source gives them in different places.", "data": [{"compound": "CO[C@H]1CCN(c2nc(-c3cccc4[nH]cc(C)c34)nc3c2CN(c2cc(C(C)C)ccc2C)CC3)C[C@@H]1C", "note": "[Example 17-AY, 6-(5-isopropyl-2-methylphenyl)-4-((3S,4S)-4-methoxy-3-methylpiperidin-1-yl)-2-(3-methyl-1H-indol-4-yl)-5,6,7,8-tetrahydropyrido[4,3-d]pyrimidine]", "values": [{"measurement": "IC50", "setting": "CD11b; Homo sapiens", "value": 45, "unit": "nM"}, {"measurement": "IC50", "setting": "human C5aR", "value": 9, "unit": "nM"}]}, {"compound": "CO[C@H]1CCN(c2nc(-c3c(C)cccc3C)nc3c2CN(c2cc(C(F)(F)F)ccc2C)CC3)CC1(C)C", "note": "[Example 19-AB, (S)-2-(2,6-dimethylphenyl)-4-(4-methoxy-3,3-dimethylpiperidin-1-yl)-6-(2-methyl-5-(trifluoromethyl)phenyl)-5,6,7,8-tetrahydropyrido[4,3-d]pyrimidine]", "values": [{"measurement": "IC50", "setting": "CD11b; Homo sapiens", "value": 26, "unit": "nM"}, {"measurement": "IC50", "setting": "human C5aR", "value": 17, "unit": "nM"}]}, {"compound": "CO[C@@H]1CCN(c2nc(-c3c(C)cccc3C)nc3c2CN(c2cc(Cl)ccc2C)CC3)[C@H](C)C1", "note": "[Example 21-P, 6-(5-chloro-2-methylphenyl)-2-(2,6-dimethylphenyl)-4-((2R,4R)-4-methoxy-2-methylpiperidin-1-yl)-5,6,7,8-tetrahydropyrido[4,3-d]pyrimidine]", "values": [{"measurement": "IC50", "setting": "CD11b; Homo sapiens", "value": 26, "unit": "nM"}, {"measurement": "IC50", "setting": "human C5aR", "value": 7, "unit": "nM"}]}, {"compound": "Cc1ccc(C(C)C)cc1N1CCc2nc(-c3cccc4[nH]cc(C)c34)nc(N3CC(O)C3)c2C1", "note": "[Example 17-AP, 1-(6-(5-isopropyl-2-methylphenyl)-2-(3-methyl-1H-indol-4-yl)-5,6,7,8-tetrahydropyrido[4,3-d]pyrimidin-4-yl)azetidin-3-ol]", "values": [{"measurement": "IC50", "setting": "CD11b; Homo sapiens", "value": 513, "unit": "nM"}, {"measurement": "IC50", "setting": "human C5aR", "value": 10, "unit": "nM"}]}, {"compound": "CO[C@H]1C[C@H]2CC[C@@H](C1)N2c1nc(-c2cccc3[nH]cc(C)c23)nc2c1CN(c1cc(C(C)C)ccc1C)CC2", "note": "[Example 17-AS, 6-(5-isopropyl-2-methylphenyl)-4-((3-endo)-3-methoxy-8-azabicyclo[3.2.1]octan-8-yl)-2-(3-methyl-1H-indol-4-yl)-5,6,7,8-tetrahydropyrido[4,3-d]pyrimidine]", "values": [{"measurement": "IC50", "setting": "CD11b; Homo sapiens", "value": 67, "unit": "nM"}, {"measurement": "IC50", "setting": "human C5aR", "value": 46, "unit": "nM"}]}, {"compound": "CCc1cccc(CC)c1-c1cc(C)c2c(n1)CCN(c1cc(C3CC3)ccc1C)C2", "note": "[Example 40-M, 6-(5-cyclopropyl-2-methylphenyl)-2-(2,6-diethylphenyl)-4-methyl-5,6,7,8-tetrahydro-1,6-naphthyridine]", "values": [{"measurement": "IC50", "setting": "CD11b; Homo sapiens", "value": 69, "unit": "nM"}, {"measurement": "IC50", "setting": "human C5aR", "value": 11, "unit": "nM"}]}, {"compound": "CO[C@@H]1CCN(c2nc(-c3c(C)ccc4[nH]nc(C)c34)nc3c2CN(c2c(Cl)c(C(F)(F)F)nn2C)CC3)CC1(C)C", "note": "[Example 55-N, (R)-6-(4-chloro-1-methyl-3-(trifluoromethyl)-1H-pyrazol-5-yl)-2-(3,5-dimethyl-1H-indazol-4-yl)-4-(4-methoxy-3,3-dimethylpiperidin-1-yl)-5,6,7,8-tetrahydropyrido[4,3-d]pyrimidine]", "values": [{"measurement": "IC50", "setting": "CD11b; Homo sapiens", "value": 12, "unit": "nM"}, {"measurement": "IC50", "setting": "human C5aR", "value": 6, "unit": "nM"}]}, {"compound": "CO[C@@H]1CCN(c2nc(-c3c(C)ccc4[nH]nc(C)c34)nc3c2CN(c2cc(C(F)(F)F)ccc2C)CC3)[C@H](C)C1", "note": "[Example 21-AH, 2-(3,5-dimethyl-1H-indazol-4-yl)-4-((2R,4R)-4-methoxy-2-methylpiperidin-1-yl)-6-(2-methyl-5-(trifluoromethyl)phenyl)-5,6,7,8-tetrahydropyrido[4,3-d]pyrimidine]", "values": [{"measurement": "IC50", "setting": "CD11b; Homo sapiens", "value": 6, "unit": "nM"}, {"measurement": "IC50", "setting": "human C5aR", "value": 1, "unit": "nM"}]}, {"compound": "CCOC1CN(c2nc(-c3c(C)ccc4[nH]nc(C)c34)nc3c2CN(c2c(Cl)c(C4CC4)nn2C)CC3)C1", "note": "[Example 68-B, 6-(4-Chloro-3-cyclopropyl-1-methyl-1H-pyrazol-5-yl)-2-(3,5-dimethyl-1H-indazol-4-yl)-4-(3-ethoxyazetidin-1-yl)-5,6,7,8-tetrahydropyrido[4,3-d]pyrimidine]", "values": [{"measurement": "IC50", "setting": "CD11b; Homo sapiens", "value": 17, "unit": "nM"}, {"measurement": "IC50", "setting": "human C5aR", "value": 2, "unit": "nM"}]}, {"compound": "CO[C@@H]1CCN(c2nc(-c3c(C)ccc4[nH]nc(C)c34)nc3c2CN(c2cc(C(F)(F)F)ccc2C)CC3)CC1(C)C", "note": "[Example 21-AJ, (R)-2-(3,5-dimethyl-1H-indazol-4-yl)-4-(4-methoxy-3,3-dimethylpiperidin-1-yl)-6-(2-methyl-5-(trifluoromethyl)phenyl)-5,6,7,8-tetrahydropyrido[4,3-d]pyrimidine]", "values": [{"measurement": "IC50", "setting": "CD11b; Homo sapiens", "value": 15, "unit": "nM"}, {"measurement": "IC50", "setting": "human C5aR", "value": 6, "unit": "nM"}]}, {"compound": "CO[C@H]1CCN(c2nc(-c3c(C(C)C)ccc4[nH]ncc34)nc3c2CN(c2cc(C(C)C)nn2C)CC3)CC1(C)C", "note": "[Example 23-F, (S)-6-(3-isopropyl-1-methyl-1H-pyrazol-5-yl)-2-(5-isopropyl-1H-indazol-4-yl)-4-(4-methoxy-3,3-dimethylpiperidin-1-yl)-5,6,7,8-tetrahydropyrido[4,3-d]pyrimidine]", "values": [{"measurement": "IC50", "setting": "CD11b; Homo sapiens", "value": 28, "unit": "nM"}, {"measurement": "IC50", "setting": "human C5aR", "value": 5, "unit": "nM"}]}, {"compound": "CO[C@H]1CCN(c2nc(-c3c(C)ccc4[nH]nc(Cl)c34)nc3c2CN(c2cc(C(C)C)ccc2C)CC3)CC1(C)C", "note": "[Example 32-B, (S)-2-(3-Chloro-5-methyl-1H-indazol-4-yl)-6-(5-isopropyl-2-methylphenyl)-4-(4-methoxy-3,3-dimethylpiperidin-1-yl)-5,6,7,8-tetrahydropyrido[4,3-d]pyrimidine]", "values": [{"measurement": "IC50", "setting": "CD11b; Homo sapiens", "value": 24, "unit": "nM"}, {"measurement": "IC50", "setting": "human C5aR", "value": 2, "unit": "nM"}]}, {"compound": "Cc1ccc(C(C)C)cc1N1CCc2nc(-c3cccc4[nH]cc(C)c34)cc(C)c2C1", "note": "[Example 40-D, 6-(5-Isopropyl-2-methylphenyl)-4-methyl-2-(3-methyl-1H-indol-4-yl)-5,6,7,8-tetrahydro-1,6-naphthyridine]", "values": [{"measurement": "IC50", "setting": "CD11b", "value": 264, "unit": "nM"}, {"measurement": "IC50", "setting": "human C5aR", "value": 132, "unit": "nM"}]}, {"compound": "Cc1ccccc1N1CCc2nc(-c3c(C)cccc3C)nc(N(C)C)c2C1", "note": "[Example 17-T, 2-(2,6-dimethylphenyl)-N,N-dimethyl-6-(o-tolyl)-5,6,7,8-tetrahydropyrido[4,3-d]pyrimidin-4-amine]", "values": [{"measurement": "IC50", "setting": "CD11b; Homo sapiens", "value": 451, "unit": "nM"}, {"measurement": "IC50", "setting": "human C5aR", "value": 54, "unit": "nM"}]}, {"compound": "COc1nc(-c2c(C)ccc3[nH]nc(C)c23)nc2c1CN(c1cc(C3(C)COC3)ccc1C)CC2", "note": "[Example 31-H, 2-(3,5-dimethyl-1H-indazol-4-yl)-4-methoxy-6-(2-methyl-5-(3-methyloxetan-3-yl)phenyl)-5,6,7,8-tetrahydropyrido[4,3-d]pyrimidine]", "values": [{"measurement": "IC50", "setting": "CD11b; Homo sapiens", "value": 72, "unit": "nM"}, {"measurement": "IC50", "setting": "human C5aR", "value": 77, "unit": "nM"}]}, {"compound": "CO[C@@H]1CCN(c2nc(-c3c(C)ccc4[nH]nc(C)c34)nc3c2CN(c2c(F)c(C(F)F)nn2C)CC3)CC1(C)C", "note": "[Example 56-F, (R)-6-(3-(difluoromethyl)-4-fluoro-1-methyl-1H-pyrazol-5-yl)-2-(3,5-dimethyl-1H-indazol-4-yl)-4-(4-methoxy-3,3-dimethylpiperidin-1-yl)-5,6,7,8-tetrahydropyrido[4,3-d]pyrimidine]", "values": [{"measurement": "IC50", "setting": "CD11b; Homo sapiens", "value": 11, "unit": "nM"}, {"measurement": "IC50", "setting": "human C5aR", "value": 1, "unit": "nM"}]}, {"compound": "Cc1ccc(C(C)C)cc1N1CCc2nc(-c3cccc4[nH]cc(C)c34)nc(N3CCN(CC(N)=O)C[C@H]3C)c2C1", "note": "[Example 52-C, (R)-2-(4-(6-(5-Isopropyl-2-methylphenyl)-2-(3-methyl-1H-indol-4-yl)-5,6,7,8-tetrahydropyrido[4,3-d]pyrimidin-4-yl)-3-methylpiperazin-1-yl)acetamide]", "values": [{"measurement": "IC50", "setting": "CD11b; Homo sapiens", "value": 178, "unit": "nM"}, {"measurement": "IC50", "setting": "human C5aR", "value": 1, "unit": "nM"}]}, {"compound": "CCn1nc(C2CC2)c(F)c1N1CCc2nc(-c3c(C)ccc4[nH]nc(C)c34)nc(N3CC[C@@H](OC)C(C)(C)C3)c2C1", "note": "[Example 71-B, (R)-6-(3-Cyclopropyl-1-ethyl-4-fluoro-1H-pyrazol-5-yl)-2-(3,5-dimethyl-1H-indazol-4-yl)-4-(4-methoxy-3,3-dimethylpiperidin-1-yl)-5,6,7,8-tetrahydropyrido[4,3-d]pyrimidine]", "values": [{"measurement": "IC50", "setting": "CD11b; Homo sapiens", "value": 10, "unit": "nM"}, {"measurement": "IC50", "setting": "human C5aR", "value": 2, "unit": "nM"}]}]}
